{"source": "paper PMC5429769", "about": "“Rational development of Stafib-2: a selective, nanomolar inhibitor of the transcription factor STAT5b” (Scientific Reports, 2017)", "type_in_all_cases": "binding", "key": {"STAT5a wild-type": {"target": "T1, STAT5a wild-type (Homo sapiens, UniProt P42229)", "T1 sequence (P42229 1-794)": "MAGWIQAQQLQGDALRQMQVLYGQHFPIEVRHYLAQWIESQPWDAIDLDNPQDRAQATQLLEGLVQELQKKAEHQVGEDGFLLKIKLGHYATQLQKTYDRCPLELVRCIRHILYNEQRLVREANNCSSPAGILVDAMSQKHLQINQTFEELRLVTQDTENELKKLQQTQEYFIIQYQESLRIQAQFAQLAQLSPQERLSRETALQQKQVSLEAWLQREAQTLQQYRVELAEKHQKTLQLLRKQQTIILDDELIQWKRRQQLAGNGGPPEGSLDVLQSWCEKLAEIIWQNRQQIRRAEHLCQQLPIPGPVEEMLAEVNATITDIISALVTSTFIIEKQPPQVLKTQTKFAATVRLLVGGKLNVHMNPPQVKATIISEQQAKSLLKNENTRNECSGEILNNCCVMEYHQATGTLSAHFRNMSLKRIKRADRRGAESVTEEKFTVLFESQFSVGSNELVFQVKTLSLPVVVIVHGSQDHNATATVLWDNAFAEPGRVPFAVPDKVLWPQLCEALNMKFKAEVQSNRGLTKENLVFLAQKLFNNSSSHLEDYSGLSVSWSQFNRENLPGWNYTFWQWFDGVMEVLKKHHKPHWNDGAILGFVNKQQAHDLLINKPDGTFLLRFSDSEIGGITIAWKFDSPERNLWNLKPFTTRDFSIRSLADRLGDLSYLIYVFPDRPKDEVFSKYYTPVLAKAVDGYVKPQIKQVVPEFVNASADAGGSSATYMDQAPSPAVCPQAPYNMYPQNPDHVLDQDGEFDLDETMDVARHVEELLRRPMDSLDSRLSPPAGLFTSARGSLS", "experiment": "Isothermal titration calorimetry, STAT5a wild-type"}, "STAT5a SH2 domain": {"target": "T2, STAT5a SH2 domain (Homo sapiens, UniProt P42229)", "T2 sequence (P42229 1-794)": "T1 sequence (P42229 1-794)", "experiment": "Fluorescence polarization assay, STAT5a SH2 domain", "settings": "mean ± s.d."}, "STAT6": {"target": "T3, STAT6 (Homo sapiens, UniProt P42226)", "T3 sequence (P42226 1-847)": "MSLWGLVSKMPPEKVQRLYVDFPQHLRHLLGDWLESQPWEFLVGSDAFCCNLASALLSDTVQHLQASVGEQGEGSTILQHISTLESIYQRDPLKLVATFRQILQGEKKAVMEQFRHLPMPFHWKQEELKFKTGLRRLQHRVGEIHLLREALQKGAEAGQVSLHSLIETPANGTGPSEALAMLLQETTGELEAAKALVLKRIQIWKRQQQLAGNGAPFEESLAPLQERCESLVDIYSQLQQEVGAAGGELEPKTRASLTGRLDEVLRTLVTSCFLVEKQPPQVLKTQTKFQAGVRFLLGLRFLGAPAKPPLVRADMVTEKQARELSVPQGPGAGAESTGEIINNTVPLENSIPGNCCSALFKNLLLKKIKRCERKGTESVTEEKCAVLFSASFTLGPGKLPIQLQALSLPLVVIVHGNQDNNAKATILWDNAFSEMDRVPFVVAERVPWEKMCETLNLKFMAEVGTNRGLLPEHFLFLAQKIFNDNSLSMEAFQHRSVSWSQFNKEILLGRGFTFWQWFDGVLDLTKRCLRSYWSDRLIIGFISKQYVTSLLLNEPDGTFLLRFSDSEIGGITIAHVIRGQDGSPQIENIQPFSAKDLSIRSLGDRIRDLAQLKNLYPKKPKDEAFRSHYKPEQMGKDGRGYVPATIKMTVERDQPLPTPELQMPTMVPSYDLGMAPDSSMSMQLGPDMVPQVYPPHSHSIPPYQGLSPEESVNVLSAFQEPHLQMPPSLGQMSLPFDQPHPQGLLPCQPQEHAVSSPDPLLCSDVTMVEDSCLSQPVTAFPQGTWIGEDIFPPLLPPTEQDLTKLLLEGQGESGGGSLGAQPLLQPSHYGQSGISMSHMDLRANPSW", "experiment": "Fluorescence polarization assay, STAT6"}}}
{"compound": "O=C(COc1ccc(C(=O)Nc2ccc(Oc3ccccc3)cc2)cc1)NCc1ccc(OP(=O)(O)O)c(OP(=O)(O)O)c1", "note": "[compound 4, 4-((2-(4-((4-phenoxyphenyl)carbamoyl)phenoxy)acetamido)methyl)-1,2-phenylene bis(dihydrogen phosphate)]", "values": [{"measurement": "fold lower affinity for STAT5a than for STAT5b", "setting": "STAT5a wild-type; ITC Kd STAT5a vs wild-type STAT5b", "result": "approximately 20 fold"}, {"measurement": "Kd", "setting": "STAT5a wild-type; ITC, 25 °C, STAT5a", "result": "6.1 ± 3.2", "unit": "µM"}, {"measurement": "Ki", "setting": "STAT5a SH2 domain; converted from IC50 using the published equation, n = 3", "result": "1.3 ± 0.1", "unit": "µM"}, {"measurement": "IC50", "setting": "STAT5a SH2 domain; fluorescence polarization, three independent experiments", "result": "2.7 ± 0.2", "unit": "µM"}, {"measurement": "Ki", "setting": "STAT6; converted from IC50 using the published equation", "result": "11.7 ± 1.2", "unit": "µM"}, {"measurement": "IC50", "setting": "STAT6; fluorescence polarization", "result": "23.7 ± 2.5", "unit": "µM"}]}
